According to patent publication US8663668B2, “Preservative for medical devices” (Fresenius Medical Care Deutschland GmbH, priority 2004, dated 2014):

Assay: antimicrobial effectiveness test (USP 27), disinfectant/preservative effect
Type: cell-based
Settings: additive alone
Source text: Within the context of the present invention, preferably poly(hexamethylene)biguanide having a molecular weight of 2900 to 15,000 (PHMB) is used as the biguanide compound. An especially preferred disinfection solution contains PHMB in a concentration of 0.01% to 0.5% by weight, where concentrations of 0.02% to 0.06% by weight are especially advantageous. A neutral buffer containing phosphate, and preferably also containing the following substances is used as the medium: sodium citrate dihydrate, sodium acetate trihydrate, sodium chloride, sodium monohydrogen phosphate, potassium dihydrogen phosphate. Such a solution effectively disinfects and preserves the aforementioned medical devices and is in compliance with the requirements of the “antimicrobial effectiveness tests” described in USP 27 (United States Pharmacopoeia).
An adsorber column of the type IMMUNOSORBA (Fresenius Adsorber Technology GmbH) is used to remove antibodies from blood plasma and binds the antibodies via protein A of Staphylococcus aureus. This adsorber column is filled with a solution according to Example 1.

With `N[C@@H](Cc1c[nH]c2ccccc12)C(=O)O` [Tryptophan, tryptophan] the disinfectant effect was “does not have any disinfectant effect”.
